Each compound was assayed against phosphorylated active hERK2 enzyme (Homo sapiens (Human), UniProt P28482). Conditions: not given.
Sequence of phosphorylated active hERK2 enzyme (P28482 whole entry): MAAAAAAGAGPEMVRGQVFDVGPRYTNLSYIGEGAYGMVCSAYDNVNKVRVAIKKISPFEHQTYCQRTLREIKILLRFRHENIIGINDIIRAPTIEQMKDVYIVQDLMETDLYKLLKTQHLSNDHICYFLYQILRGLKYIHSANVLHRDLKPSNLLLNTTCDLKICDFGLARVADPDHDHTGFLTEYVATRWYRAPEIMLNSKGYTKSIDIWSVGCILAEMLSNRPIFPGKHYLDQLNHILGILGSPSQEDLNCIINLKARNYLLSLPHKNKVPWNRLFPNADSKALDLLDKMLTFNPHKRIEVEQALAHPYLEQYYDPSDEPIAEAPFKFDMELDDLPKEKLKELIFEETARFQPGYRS

**Q.** Which IC50 does the source give for `C[C@@H](NC(=O)Nc1cc2cnn(CC3CCCC3)c2c(CO)n1)c1ccccc1` [Example 303, 1-[1-(cyclopentylmethyl)-7-(hydroxymethyl)-1H-pyrazolo[3,4-c]pyridin-5-yl]-3-[(1R)-1-phenylethyl]urea] here?
**A.** Its IC50 is 294 nM.

**Q.** How did the IC50 turn out when `C[C@@H](NC(=O)Nc1cc2cnn(CC3CCOCC3)c2c(CO)n1)c1ccccc1` [Example 309, 1-[7-(hydroxymethyl)-1-(tetrahydro-2H-pyran-4-ylmethyl)-1H-pyrazolo[3,4-c]pyridin-5-yl]-3-[(1R)-1-phenylethyl]urea] was run?
**A.** Its IC50 is 285 nM.

Same assay, conditions: read-out: ERK2 IC50; IMAP-FP assay; 0.5 nM hERK2, 30 μM ATP; 10 point titration, 3 μM starting concentration

**Q.** For `CCO[C@H]1CN(Cc2c(F)cccc2F)C[C@@H]1NC(=O)Nc1cc2cnn(-c3ccnc(C)c3)c2cn1` [Example 278, 1-[(3S,4S)-1-(2,6-difluorobenzyl)-4-ethoxypyrrolidin-3-yl]-3-[1-(2-methylpyridin-4-yl)-1H-pyrazolo[3,4-c]pyridin-5-yl]urea], which IC50 is on record?
**A.** The IC50 was 45.3 nM.

**Q.** For `CCO[C@H]1CN(Cc2ccccc2C(F)(F)F)C[C@@H]1NC(=O)Nc1cc2cnn(-c3ccnc(C)c3)c2cn1` [Example 279, 1-{(3S,4S)-4-ethoxy-1-[2-(trifluoromethyl)benzyl]pyrrolidin-3-yl}-3-[1-(2-methylpyridin-4-yl)-1H-pyrazolo[3,4-c]pyridin-5-yl]urea], which IC50 is on record?
**A.** The IC50 was 1750 nM.

**Q.** Which IC50 does the source give for `Cc1cc(-n2ncc3cc(NC(=O)NC4CCN(Cc5ccccc5C#N)C4)ncc32)ccn1` (centres unmarked) [Example 280, 1-[1-(2-cyanobenzyl)pyrrolidin-3-yl]-3-[1-(2-methylpyridin-4-yl)-1H-pyrazolo[3,4-c]pyridin-5-yl]urea] here?
**A.** Its IC50 is 4.35 nM.

**Q.** `Cc1cc(-n2ncc3cc(NC(=O)NC4CCN(Cc5cccnc5Cl)C4)ncc32)ccn1` (centres unmarked) [Example 281, 1-{1-[(2-chloropyridin-3-yl)methyl]pyrrolidin-3-yl}-3-[1-(2-methylpyridin-4-yl)-1H-pyrazolo[3,4-c]pyridin-5-yl]urea] was tested. Which IC50 did it give?
**A.** The IC50 was 2.84 nM.

**Q.** For `Cc1cc(-n2ncc3cc(NC(=O)N[C@H]4CCN(Cc5c(F)cccc5F)C4)ncc32)ccn1` [Example 282, 1-[(3S)-1-(2,6-difluorobenzyl)pyrrolidin-3-yl]-3-[1-(2-methylpyridin-4-yl)-1H-pyrazolo[3,4-c]pyridin-5-yl]urea], which IC50 is on record?
**A.** The IC50 was 169 nM.

**Q.** How did the IC50 turn out when `Cc1cc(-n2ncc3cc(NC(=O)N[C@@H]4CCN(Cc5c(F)cccc5F)C4)ncc32)ccn1` [Example 283, 1-[(3R)-1-(2,6-difluorobenzyl)pyrrolidin-3-yl]-3-[1-(2-methylpyridin-4-yl)-1H-pyrazolo[3,4-c]pyridin-5-yl]urea] was run?
**A.** The IC50 was 0.323 nM.

**Q.** For `Cc1cc(-n2ncc3cc(NC(=O)N[C@H]4CNC[C@@H]4Oc4ccc(F)cc4)ncc32)ccn1` [Example 284, 1-[(3S,4S)-4-(4-fluorophenoxy)pyrrolidin-3-yl]-3-[1-(2-methylpyridin-4-yl)-1H-pyrazolo[3,4-c]pyridin-5-yl]urea], which IC50 is on record?
**A.** Its IC50 is 24.1 nM.

**Q.** `Cc1cc(-n2ncc3cc(NC(=O)N[C@H]4CN(C)C[C@@H]4Oc4ccc(F)cc4)ncc32)ccn1` [Example 285, 1-[(3S,4S)-4-(4-fluorophenoxy)-1-methylpyrrolidin-3-yl]-3-[1-(2-methylpyridin-4-yl)-1H-pyrazolo[3,4-c]pyridin-5-yl]urea] was tested. Which IC50 did it give?
**A.** The IC50 was 16.4 nM.

**Q.** `Cc1cc(-n2ncc3cc(NC(=O)NC[C@@H]4CCNC4)ncc32)ccn1` [Example 286, 1-[1-(2-methylpyridin-4-yl)-1H-pyrazolo[3,4-c]pyridin-5-yl]-3-[(3R)-pyrrolidin-3-ylmethyl]urea] was tested. Which IC50 did it give?
**A.** The IC50 was 23.4 nM.

**Q.** Which IC50 does the source give for `Cc1cc(-n2ncc3cc(NC(=O)NCC4(F)CNC4)ncc32)ccn1` [Example 287, 1-[(3-fluoroazetidin-3-yl)methyl]-3-[1-(2-methylpyridin-4-yl)-1H-pyrazolo[3,4-c]pyridin-5-yl]urea] here?
**A.** The IC50 was 43.2 nM.

**Q.** How did the IC50 turn out when `Cc1cc(-n2ncc3cc(NC(=O)NC4CNCC(c5ccccc5)C4)ncc32)ccn1` (centres unmarked) [Example 288, 1-[1-(2-methylpyridin-4-yl)-1H-pyrazolo[3,4-c]pyridin-5-yl]-3-(5-phenylpiperidin-3-yl)urea] was run?
**A.** Its IC50 is 10.5 nM.

**Q.** How did the IC50 turn out when `Cc1cc(-n2ncc3cc(NC(=O)NC[C@H]4CCN(C)C4)ncc32)ccn1` [Example 289, 1-[1-(2-methylpyridin-4-yl)-1H-pyrazolo[3,4-c]pyridin-5-yl]-3-{[(3R)-1-methylpyrrolidin-3-yl]methyl}urea] was run?
**A.** The IC50 was 36.6 nM.

**Q.** For `Cc1cc(-n2ncc3cc(NC(=O)NC4CC(c5ccccc5)CN(C)C4)ncc32)ccn1` (centres unmarked) [Example 290, 1-(1-methyl-5-phenylpiperidin-3-yl)-3-[1-(2-methylpyridin-4-yl)-1H-pyrazolo[3,4-c]pyridin-5-yl]urea], which IC50 is on record?
**A.** The IC50 was 17.8 nM.

**Q.** How did the IC50 turn out when `CO[C@H]1CN(C)C[C@@H]1NC(=O)Nc1cc2cnn(-c3ccnc(C)c3)c2cn1` [Example 291, 1-[(3S,4S)-4-methoxy-1-methylpyrrolidin-3-yl]-3-[1-(2-methylpyridin-4-yl)-1H-pyrazolo[3,4-c]pyridin-5-yl]urea] was run?
**A.** Its IC50 is 46.4 nM.

**Q.** Which IC50 does the source give for `Cc1cc(-n2ncc3cc(NC(=O)N[C@@H](c4ccccc4)C(C)(C)O)ncc32)ccn1` [Example 292, (S)-1-(2-methyl-2-hydroxy-1-phenylpropyl)-3-(1-(2-methylpyridin-4-yl)-1H-pyrazolo[3,4-c]pyridin-5-yl)urea] here?
**A.** The IC50 was 0.558 nM.

**Q.** `CCC(O)(CC)[C@@H](NC(=O)Nc1cc2cnn(-c3ccnc(C)c3)c2cn1)c1ccccc1` [Example 293, 1-[(1S)-2-ethyl-2-hydroxy-1-phenylbutyl]-3-[1-(2-methylpyridin-4-yl)-1H-pyrazolo[3,4-c]pyridin-5-yl]urea] was tested. Which IC50 did it give?
**A.** Its IC50 is 2.66 nM.

**Q.** With `Cc1cc(-n2ncc3cc(NC(=O)N[C@@H](c4ccc(F)cc4)C(C)(C)O)ncc32)ccn1` [Example 294, 1-[(1S)-1-(4-fluorophenyl)-2-hydroxy-2-methylpropyl]-3-[1-(2-methylpyridin-4-yl)-1H-pyrazolo[3,4-c]pyridin-5-yl]urea] as the compound, how does the IC50 read?
**A.** Its IC50 is 1.08 nM.

**Q.** `CC(C)(O)[C@@H](NC(=O)Nc1cc2cnn(-c3ccc(F)cc3)c2cn1)c1ccc(F)cc1` [Example 295, 1-[(1S)-1-(4-fluorophenyl)-2-hydroxy-2-methylpropyl]-3-[1-(4-fluorophenyl)-1H-pyrazolo[3,4-c]pyridin-5-yl]urea] was tested. Which IC50 did it give?
**A.** The IC50 was 1.29 nM.

**Q.** For `CC(C)(O)[C@@H](NC(=O)Nc1cc2cnn(-c3ccc(F)cc3)c2cn1)c1ccccc1` [Example 296, 1-[1-(4-fluorophenyl)-1H-pyrazolo[3,4-c]pyridin-5-yl]-3-[(1S)-2-hydroxy-2-methyl-1-phenylpropyl]urea], which IC50 is on record?
**A.** Its IC50 is 0.812 nM.

**Q.** Which IC50 does the source give for `Cc1cc(-n2ncc3cc(NC(=O)N[C@@H](c4ccccc4)C(C)O)ncc32)ccn1` (stereo partly drawn) [Example 297, (S)-1-(2-hydroxy-1-phenylpropyl)-3-(1-(2-methylpyridin-4-yl)-1H-pyrazolo[3,4-c]pyridin-5-yl)urea] here?
**A.** Its IC50 is 1.06 nM.

**Q.** `C[C@@H](NC(=O)Nc1cc2cnn(C)c2c(CO)n1)c1ccccc1` [Example 298, (R)-1-(7-(Hydroxymethyl)-1-methyl-1H-pyrazolo[3,4-c]pyridin-5-yl)-3-(1-phenylethyl)urea] was tested. Which IC50 did it give?
**A.** Its IC50 is 60.4 nM.

**Q.** Which IC50 does the source give for `CCn1ncc2cc(NC(=O)N[C@H](C)c3ccccc3)nc(CO)c21` [Example 299, 1-[1-Ethyl-7-(hydroxymethyl)-1H-pyrazolo[3,4-c]pyridin-5-yl]-3-[(1R)-1-phenylethyl]urea] here?
**A.** Its IC50 is 18.1 nM.

**Q.** How did the IC50 turn out when `Cc1cc(-n2ncc3cc(NC(=O)N[C@H](C)c4ccccc4)nc(CO)c32)ccn1` [Example 300, 1-[7-(Hydroxymethyl)-1-(2-methylpyridin-4-yl)-1H-pyrazolo[3,4-c]pyridin-5-yl]-3-[(1R)-1-phenylethyl]urea] was run?
**A.** Its IC50 is 10.3 nM.

**Q.** `COCCCn1ncc2cc(NC(=O)N[C@H](C)c3ccccc3)nc(CO)c21` [Example 301, 1-[7-(hydroxymethyl)-1-(3-methoxypropyl)-1H-pyrazolo[3,4-c]pyridin-5-yl]-3-[(1R)-1-phenylethyl]urea] was tested. Which IC50 did it give?
**A.** The IC50 was 78 nM.

**Q.** With `CC(C)n1ncc2cc(NC(=O)N[C@H](C)c3ccccc3)nc(CO)c21` [Example 302, 1-[7-(hydroxymethyl)-1-(1-methylethyl)-1H-pyrazolo[3,4-c]pyridin-5-yl]-3-[(1R)-1-phenylethyl]urea] as the compound, how does the IC50 read?
**A.** Its IC50 is 62.2 nM.

**Q.** Which IC50 does the source give for `C[C@@H](NC(=O)Nc1cc2cnn(CC3CCC3)c2c(CO)n1)c1ccccc1` [Example 304, 1-[1-(cyclobutylmethyl)-7-(hydroxymethyl)-1H-pyrazolo[3,4-c]pyridin-5-yl]-3-[(1R)-1-phenylethyl]urea] here?
**A.** Its IC50 is 230 nM.

**Q.** For `CCCn1ncc2cc(NC(=O)N[C@H](C)c3ccccc3)nc(CO)c21` [Example 305, 1-[7-(hydroxymethyl)-1-propyl-1H-pyrazolo[3,4-c]pyridin-5-yl]-3-[(1R)-1-phenylethyl]urea], which IC50 is on record?
**A.** Its IC50 is 43.7 nM.

**Q.** `CC(C)Cn1ncc2cc(NC(=O)N[C@H](C)c3ccccc3)nc(CO)c21` [Example 306, 1-[7-(hydroxymethyl)-1-(2-methylpropyl)-1H-pyrazolo[3,4-c]pyridin-5-yl]-3-[(1R)-1-phenylethyl]urea] was tested. Which IC50 did it give?
**A.** Its IC50 is 178 nM.

**Q.** For `C[C@@H](NC(=O)Nc1cc2cnn(C3CCCC3)c2c(CO)n1)c1ccccc1` [Example 307, 1-[1-cyclopentyl-7-(hydroxymethyl)-1H-pyrazolo[3,4-c]pyridin-5-yl]-3-[(1R)-1-phenylethyl]urea], which IC50 is on record?
**A.** Its IC50 is 125 nM.

**Q.** `C[C@@H](NC(=O)Nc1cc2cnn(CC3CC3)c2c(CO)n1)c1ccccc1` [Example 308, 1-[1-(cyclopropylmethyl)-7-(hydroxymethyl)-1H-pyrazolo[3,4-c]pyridin-5-yl]-3-[(1R)-1-phenylethyl]urea] was tested. Which IC50 did it give?
**A.** The IC50 was 79.5 nM.

**Q.** `C[C@@H](NC(=O)Nc1cc2cnn(CCO)c2c(CO)n1)c1ccccc1` [Example 310, 1-[1-(2-hydroxyethyl)-7-(hydroxymethyl)-1H-pyrazolo[3,4-c]pyridin-5-yl]-3-[(1R)-1-phenylethyl]urea] was tested. Which IC50 did it give?
**A.** Its IC50 is 160 nM.

**Q.** With `C[C@@H](NC(=O)Nc1cc2cnn(CC3CCOC3)c2c(CO)n1)c1ccccc1` (stereo partly drawn) [Example 311, 1-[7-(hydroxymethyl)-1-(tetra-hydrofuran-3-ylmethyl)-1H-pyrazolo[3,4-c]pyridin-5-yl]-3-[(1R)-1-phenylethyl]urea] as the compound, how does the IC50 read?
**A.** Its IC50 is 158 nM.

**Q.** Which IC50 does the source give for `COCCn1ncc2cc(NC(=O)N[C@H](C)c3ccccc3)nc(CO)c21` [Example 312, 1-[7-(hydroxymethyl)-1-(2-methoxyethyl)-1H-pyrazolo[3,4-c]pyridin-5-yl]-3-[(1R)-1-phenylethyl]urea] here?
**A.** Its IC50 is 296 nM.

— patent publication US9884048B2, “ERK inhibitors” (Merck Sharp & Dohme Corp., priority 2014, dated 2018)
